Data published in PubChem BioAssay (NCI).
Values joined by “and” are separate entries in the source; they are usually repeats but may differ in a detail not shown here. Identical values can stand only once.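 Where inhibition never reached the appropriate level, the endpoint shown equals the highest concentration tested. Otherwise, values were interpolated linearly from a five-concentration, 48-hour dose response in 96-well plates. GI50 is the concentration that inhibits growth by half. TGI: total growth inhibition.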

Key:
Assay in all cases: growth of human tumour cells (NCI), 48 h
HCT-116 colon = test system: HCT-116 colon
TK-10 renal = test system: TK-10 renal
SN12C renal = test system: SN12C renal
SK-MEL-2 melanoma = test system: SK-MEL-2 melanoma
HL-60(TB) leukemia = test system: HL-60(TB) leukemia
OVCAR-5 ovarian = test system: OVCAR-5 ovarian
NCI-H522 lung = test system: NCI-H522 lung
UACC-257 melanoma = test system: UACC-257 melanoma
MDA-MB-231 breast = test system: MDA-MB-231 breast

| Compound | TGI (HCT-116 colon) | TGI (TK-10 renal) | TGI (SN12C renal) | TGI (SK-MEL-2 melanoma) | TGI (HL-60(TB) leukemia) | TGI (OVCAR-5 ovarian) | TGI (NCI-H522 lung) | TGI (UACC-257 melanoma) | GI50 (HCT-116 colon) | GI50 (TK-10 renal) | GI50 (SN12C renal) | GI50 (SK-MEL-2 melanoma) | GI50 (OVCAR-5 ovarian) | GI50 (NCI-H522 lung) | GI50 (UACC-257 melanoma) | TGI (MDA-MB-231 breast) | GI50 (MDA-MB-231 breast) | GI50 (HL-60(TB) leukemia) |
| --- | --- | --- | --- | --- | --- | --- | --- | --- | --- | --- | --- | --- | --- | --- | --- | --- | --- | --- |
| CSc1ccc2c(cc1=O)[C@@H](NC(=O)c1ccc(Cl)cc1)CCc1cc(O)c(O)c(O)c1-2 | 32.1 µM | > 100 µM | 75.8 µM | > 100 µM | > 100 µM | > 100 µM | 52.1 µM | > 100 µM |  |  |  |  |  |  |  |  |  |  |
| C[C@@H](NS(=O)(=O)c1ccc(NC(=O)c2ccccc2)cc1)C(=O)O |  | > 100 µM | > 100 µM | > 100 µM | > 100 µM | > 100 µM | > 100 µM | > 100 µM |  |  |  |  |  |  |  |  |  |  |
| CC1=NN(C(=O)Nc2ccc(Cl)cc2)C(=O)C2CCC(=O)N12 (stereo not given) | > 100 µM | > 100 µM | > 100 µM | > 100 µM | > 100 µM |  |  | > 100 µM |  |  |  |  |  |  |  |  |  |  |
| COc1cc2oc(-c3ccccc3)cc(=O)c2c(O)c1C | > 100 µM | > 100 µM | > 100 µM | > 100 µM | > 100 µM | > 100 µM | > 100 µM | > 100 µM |  |  |  |  |  |  |  |  |  |  |
| COc1cccc(-c2cc(=O)c3cc(N4CCOCC4)ccc3[nH]2)c1 |  | > 100 µM | > 100 µM |  | 0.0593 µM and 0.0492 µM | > 100 µM | 0.0395 µM and 0.0852 µM | > 100 µM | 0.0371 µM | 4.84 µM | 0.0868 µM | 0.0937 µM | 0.268 µM | 0.0209 µM | 0.02 µM |  |  |  |
| Cc1ccc(S(=O)(=O)N2CCN(C=S)CC2)cc1 | > 100 µM | > 100 µM | > 100 µM | > 100 µM | > 100 µM | > 100 µM | > 100 µM | > 100 µM |  |  |  |  |  |  |  |  |  |  |
| O=C(OCCCl)C1OC(n2cc(F)c(=O)[nH]c2=O)CC1O (stereo not given) | > 100 µM | > 100 µM | > 100 µM | > 100 µM | > 100 µM | > 100 µM | > 100 µM | > 100 µM |  |  |  |  |  |  |  |  |  |  |
| O=C(Cc1nc2ccccc2o1)C(=O)Nc1cccc(Cl)c1 | > 100 µM | > 100 µM | > 100 µM | > 100 µM | > 100 µM |  | > 100 µM | > 100 µM |  |  |  |  |  |  |  |  |  |  |
| N#CCC(=O)N/N=C1/C(=O)N(c2cc(Cl)ccc2Cl)C(=O)C(=O)C1c1nc2ccccc2s1 (stereo not given) | > 100 µM | > 100 µM | > 100 µM | > 100 µM | > 100 µM | > 100 µM | > 100 µM | > 100 µM |  |  |  |  |  |  |  |  |  |  |
| O=C1C(=C([O-])c2ccccc2)C(=O)c2ccccc21.O=C1C(=C([O-])c2ccccc2)C(=O)c2ccccc21.[Mn+2] |  | > 100 µM | > 100 µM | > 100 µM |  | > 100 µM |  | 48.4 µM |  | > 100 µM | 91.6 µM | > 100 µM | > 100 µM |  | 22.6 µM |  |  |  |
| C/C(=N\OCC(O)CNCCSCc1ccccc1)c1ccccc1Cl (stereo not given) | 54.7 µM | 35.3 µM | 34.8 µM | 62.7 µM | 50.1 µM | 37.9 µM | 52.8 µM | 35.6 µM |  |  |  |  |  |  |  | 35 µM |  |  |
| CCn1c2ccccc2c(=O)c2c(OC)ccc(OC)c21 | > 100 µM |  | > 100 µM | > 100 µM | > 82.4 µM | > 100 µM | > 93.8 µM | > 100 µM |  |  |  |  |  |  |  |  |  |  |
| Clc1cc(Cl)c(OCCCCCCN2CCNCC2)c(Cl)c1 | 3.19 µM | 24.5 µM | 23.6 µM | 18.1 µM | 3.82 µM | 8.42 µM | 25.4 µM | 7.4 µM | 1.67 µM | 11.8 µM | 6.42 µM | 5.52 µM | 2.82 µM | 11.1 µM | 2.77 µM | 4.53 µM | 2.17 µM | 1.86 µM |
| O=[N+]([O-])c1ccc(C(Cl)C(Cl)c2ccc(C(Cl)C(Cl)c3ccc([N+](=O)[O-])cc3[N+](=O)[O-])cc2)c([N+](=O)[O-])c1 (stereo not given) | 1.75 µM | 14.5 µM and 2.5 µM | 5.41 µM and 1.25 µM | 3.27 µM and 0.472 µM |  | 4.83 µM | 2.36 µM and 0.447 µM | 5.77 µM |  | 0.536 µM | 0.307 µM | 0.231 µM |  | 0.183 µM |  |  |  | 0.132 µM |
| CC1(C)N=C(N)N=C(N)N1c1ccc(OCCCNC(=O)Nc2cccc(S(=O)(=O)F)c2)c(Cl)c1 | > 100 µM |  |  |  | > 100 µM | > 100 µM |  | > 100 µM | 0.636 µM |  |  |  | 3.98 µM |  | > 100 µM | > 100 µM | 7.25 µM | 0.441 µM |
| O=C(CCc1ccccc1)NS(=O)(=O)c1ccccc1 | > 100 µM | > 100 µM | > 100 µM | > 100 µM | > 100 µM | > 100 µM | > 100 µM | > 100 µM |  |  |  |  |  |  |  |  |  |  |
| CCC1C(C(=O)Nc2ccccc2C)=C(C)NC(C)=C1c1ccccc1C (stereo not given) | > 77.6 µM | > 100 µM | > 100 µM | > 100 µM | 31.5 µM | > 100 µM | > 100 µM | > 100 µM |  |  |  |  |  |  |  |  |  |  |
